Laboratory results from publication PMC10788917 (Journal of Medicinal Chemistry, 2023).

Assays:
[1] = target: T1, HDAC8 (Homo sapiens, UniProt Q9BY41); experiment: Covalent labeling, tryptic digestion and MS/MS; format: binding
T1 construct: one additional N-terminal residue 'H' (His) (N)
T1 sequence (Q9BY41 1-377): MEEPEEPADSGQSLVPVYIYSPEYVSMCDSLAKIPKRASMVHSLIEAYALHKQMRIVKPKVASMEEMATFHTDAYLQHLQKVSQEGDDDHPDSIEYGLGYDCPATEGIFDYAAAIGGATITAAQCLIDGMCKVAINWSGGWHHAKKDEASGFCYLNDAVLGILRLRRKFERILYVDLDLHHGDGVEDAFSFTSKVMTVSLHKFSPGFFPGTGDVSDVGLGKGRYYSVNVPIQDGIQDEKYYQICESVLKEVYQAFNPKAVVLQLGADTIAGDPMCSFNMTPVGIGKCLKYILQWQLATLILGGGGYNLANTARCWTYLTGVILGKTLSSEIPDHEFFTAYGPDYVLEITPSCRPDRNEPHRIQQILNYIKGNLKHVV
Description: The covalent labeling procedure was conducted as described previously with slight modifications.[31] First, 25 μM HDAC8 was treated with 250 μM covalent probes for 1 h at 30 °C in the assay buffer described above. The protein was then precipitated by the addition of 10% TCA and then centrifuged at 18000g for 15 min. The supernatant was removed, and the dry pellet was diluted in buffer [50 mM NH4HCO3 (pH 7.8)]. After the fragment labeling was completed, 50 μL of the sample and 10 μL of a 0.2% (w/v) RapiGest SF (Waters, Milford, MA) solution buffered with 50 mM ammonium bicarbonate were mixed (pH 7.8), 3.3 μL of 45 mM DTT in 100 mM NH4HCO3 was added to reduce artificial oxidized cysteine residues, and the mixture was kept at 37.5 °C for 30 min. After the sample was cooled to room temperature, reduction was quenched, and nascent thiols were alkylated by adding 4.16 μL of 100 mM iodoacetamide in 100 mM NH4HCO3. Samples were placed in the dark at room temperature for 30 min. The reduced and alkylated protein was then digested with 10 μL (1 mg/mL) of trypsin (the enzyme:protein ratio was 1:10) (Sigma, St. Louis, MO). The sample was incubated at 37 °C overnight. To degrade the surfactant, 7 μL of a formic acid (500 mM) solution was added to the digested protein sample, a final concentration of 40 mM (pH ≈2) was obtained, and the mixture was further incubated at 37 °C for 45 min. For LC-MS analysis, the acid-treated sample was centrifuged for 5 min at 13 000 rpm and the supernatant was pipetted into a microvial.
For procedure A, an AB Sciex 6500 QTRAP hybrid triple quadruple linear ion trap mass spectrometer, equipped with a Turbo V ion source in electrospray mode and an Agilent 1100 Binary Pump HPLC system (Agilent Technologies, Waldbronn, Germany) consisting of an autosampler, was used for LC-MS/MS analysis. Data acquisition and processing were performed using Analyst version 1.6.2 (AB Sciex Instruments). Chromatographic separation was achieved by using the Discovery BIO Wide Pore C-18-5 column (250 mm × 2.1 mm, 5 μm, 300 Å). The sample was eluted with a gradient of solvent A (0.1% formic acid in water) and solvent B (0.1% formic acid in ACN). The flow rate was set to 0.2 mL min^–1. The initial process for separation was as follows: 5% B for 7 min, followed by a linear gradient to 90% B by […], 90% B from 60 to 64 min, and from 64 to 65 min back to the initial condition with 5% eluent B retained for 10 min. The injection volume was 10 μL. An information-dependent acquisiton (IDA) LC-MS/MS experiment was used to identify the modified tryptic peptide fragments. An enhanced MS scan (EMS) was used as a survey scan, and an enhanced product ion scan (EPI) was the dependent scan. Precursor ion selection criteria: ions greater than m/z 400, which exceeds 106 counts, exclude former target ions for 30 s after two occurrence(s). The scan rates in both survey and dependent scans were 1000 Da/s. Nitrogen was used as the nebulizer gas (GS1), heater gas (GS2), and curtain gas with the optimum values set at 50, 40, and 40 (arbitrary units), respectively. The source temperature was 350 °C, and the ion spray voltage was set at 5000 V. The declustering potential value was set to 150 V. The collision energy in EPI experiments was set to rolling collision energy mode, where the actual value was set on the basis of the mass and charge state of the selected ion. GPMAW version 4.2 was used to analyze the large number of MS-MS spectra and identify the modified tryptically digested peptides.
For procedure B, to obtain more precise information about the structure, samples were further analyzed by a Triple TOF 5600+ hybrid Quadrupole-TOF LC/MS/MS system (Sciex) equipped with a DuoSpray IonSource coupled with a Shimadzu Prominence LC20 UFLC system consisting of a quaternary pump, an autosampler, and a thermostated column compartment. Data were acquired and processed using Analyst TF version 1.7.1 (AB Sciex Instruments). […]

[2] = target: T2, HDAC8 Cys153Ser mutant (Homo sapiens, UniProt Q9BY41, C153S); experiment: HDAC8 mutant biochemical assay; details: preincubation 1 h
T2 construct: made in house
T2 sequence (Q9BY41 whole entry C153S): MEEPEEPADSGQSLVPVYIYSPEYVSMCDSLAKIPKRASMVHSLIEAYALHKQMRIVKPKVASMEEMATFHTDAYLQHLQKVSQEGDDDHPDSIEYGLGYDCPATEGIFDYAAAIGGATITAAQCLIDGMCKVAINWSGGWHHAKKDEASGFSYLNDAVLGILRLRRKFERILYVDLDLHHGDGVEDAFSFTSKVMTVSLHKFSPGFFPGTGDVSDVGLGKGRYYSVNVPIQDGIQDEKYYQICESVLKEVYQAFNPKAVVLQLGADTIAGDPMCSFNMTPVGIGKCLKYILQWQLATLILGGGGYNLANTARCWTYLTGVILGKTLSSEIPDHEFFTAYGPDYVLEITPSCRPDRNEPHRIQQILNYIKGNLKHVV

C[n+]1ccccc1I [A3+]
MS/MS: modified HDAC8 peptide [148-165] ([1]; 25 μM HDAC8, 250 μM probe, 1 h): modified
MS/MS: modified HDAC8 peptide [241-250] ([1]; 25 μM HDAC8, 250 μM probe, 1 h): modified

C[n+]1cncc(Br)c1 [F2+]
MS/MS: modified HDAC8 peptide [1-34] ([1]; 25 μM HDAC8, 250 μM probe, 1 h): modified
MS/MS: modified HDAC8 peptide [148-165] ([1]; 25 μM HDAC8, 250 μM probe, 1 h): modified
MS/MS: modified HDAC8 peptide [260-287] ([1]; 25 μM HDAC8, 250 μM probe, 1 h): modified

C#Cc1c[n+](C)ccn1 [G6+]
MS/MS: modified HDAC8 peptide [1-34] ([1]; 25 μM HDAC8, 250 μM probe, 1 h): modified
MS/MS: modified HDAC8 peptide [148-165] ([1]; 25 μM HDAC8, 250 μM probe, 1 h): modified
MS/MS: modified HDAC8 peptide [260-287] ([1]; 25 μM HDAC8, 250 μM probe, 1 h): modified

C[n+]1cncc(I)c1 [F3+]
MS/MS: modified HDAC8 peptide [1-34] ([1]; 25 μM HDAC8, 250 μM probe, 1 h): modified
MS/MS: modified HDAC8 peptide [148-165] ([1]; 25 μM HDAC8, 250 μM probe, 1 h): modified
MS/MS: modified HDAC8 peptide [260-287] ([1]; 25 μM HDAC8, 250 μM probe, 1 h): modified
MS/MS: modified HDAC8 peptide [327-357] ([1]; 25 μM HDAC8, 250 μM probe, 1 h): modified

C[n+]1ccc(I)cc1 [C3+]
MS/MS: modified HDAC8 peptide [33-83] ([1]; 25 μM HDAC8, 250 μM probe, 1 h): modified
MS/MS: modified HDAC8 peptide [148-165] ([1]; 25 μM HDAC8, 250 μM probe, 1 h): modified
MS/MS: modified HDAC8 peptide [241-250] ([1]; 25 μM HDAC8, 250 μM probe, 1 h): modified
MS/MS: modified HDAC8 peptide [260-287] ([1]; 25 μM HDAC8, 250 μM probe, 1 h): modified

C[n+]1cccnc1I [D3+]
MS/MS: modified HDAC8 peptide [1-34] ([1]; 25 μM HDAC8, 250 μM probe, 1 h): modified
MS/MS: modified HDAC8 peptide [148-165] ([1]; 25 μM HDAC8, 250 μM probe, 1 h): modified
MS/MS: modified HDAC8 peptide [241-250] ([1]; 25 μM HDAC8, 250 μM probe, 1 h): modified
MS/MS: modified HDAC8 peptide [260-287] ([1]; 25 μM HDAC8, 250 μM probe, 1 h): modified

C#Cc1cc[n+](C)cc1 [C6+]
MS/MS: modified HDAC8 peptide [1-34] ([1]; 25 μM HDAC8, 250 μM probe, 1 h): modified
MS/MS: modified HDAC8 peptide [148-165] ([1]; 25 μM HDAC8, 250 μM probe, 1 h): modified
MS/MS: modified HDAC8 peptide [241-250] ([1]; 25 μM HDAC8, 250 μM probe, 1 h): modified

C[n+]1cccnc1Br [D2+]
MS/MS: modified HDAC8 peptide [148-165] ([1]; 25 μM HDAC8, 250 μM probe, 1 h): modified
MS/MS: modified HDAC8 peptide [241-250] ([1]; 25 μM HDAC8, 250 μM probe, 1 h): modified

C#Cc1nccc[n+]1C [D6+]
MS/MS: modified HDAC8 peptide [1-34] ([1]; 25 μM HDAC8, 250 μM probe, 1 h): modified

C[n+]1cccnc1Cl [D1+]
MS/MS: modified HDAC8 peptide [1-34] ([1]; 25 μM HDAC8, 250 μM probe, 1 h): modified
MS/MS: modified HDAC8 peptide [148-165] ([1]; 25 μM HDAC8, 250 μM probe, 1 h): modified
MS/MS: modified HDAC8 peptide [241-250] ([1]; 25 μM HDAC8, 250 μM probe, 1 h): modified

C#Cc1c[n+](C)ccc1NC(=O)CC(=O)N1Cc2ccccc2C1.[I-] [compound 3, 3-Ethynyl-4-[3-(isoindolin-2-yl)-3-oxopropanamido]-1-methylpyridin-1-ium Iodide]
IC50 [2]: 58.8 µM
covalent labeling of HDAC8 cysteine by tryptic digestion and MS/MS [1]: proved Cys153 covalent labeling
